Data on one compound can be found in patent publication US7696208B2, “Therapeutic agents useful for treating pain” (Purdue Pharma L.P., priority 2003, dated 2010).

Molecules are shown by their SMILES.

Broadly, the IC50 is the concentration needed to halve the response being measured.

The target of experiment [1] is T1, human VR1 (Homo sapiens, UniProt Q8NER1).
T1 construct: expressed in transfected cells; host or cells: HEK293-EcR cells, expression induced with ponasterone A
Briefly: Capsaicin-based assay (FLIPR calcium influx, inducible HEK293-EcR cells expressing human VR1). The experiment is classed as cell-based. Conditions: activation by 50 μL of capsaicin (400 nM), HEK293-EcR cells induced with 5 μM PonA, Fluo-4, FLIPR, n=3. The method, then:
(§1) Human VR1 Cloning: Human spinal cord RNA (commercially available from Clontech, Palo Alto, Calif.) was used. Reverse transcription was conducted on 1.0 μg total RNA using Thermoscript Reverse Transcriptase (commercially available from Invitrogen, Carlsbad, Calif.) and oligo dT primers as detailed in its product description. Reverse transcription reactions were incubated at 55° C. for 1 h, heat-inactivated at 85° C. for 5 min, and RNase H-treated at 37° C. for 20 min.
(§2) Human VR1 cDNA sequence was obtained by comparison of the human genomic sequence, prior to annotation, to the published rat sequence. Intron sequences were removed and flanking exonic sequences were joined to generate the hypothetical human cDNA. Primers flanking the coding region of human VR1 were designed as follows: forward primer, […]; and reverse primer, […]. […]
(§3) Generation of Inducible Cell Lines: Unless noted otherwise, cell culture reagents were purchased from Life Technologies of Rockville, Md. […] On the day of assay, cells were loaded with Fluo-4 (a calcium-sensitive dye that is commercially available from Molecular Probes, Eugene, Oreg.) and CAP-mediated calcium influx was measured using a FLIPR as described below. […]

In experiment [2] the target is T1, human VR1. Nature of the experiment: pH-based assay (FLIPR calcium influx, inducible HEK293-EcR cells expressing human VR1). The experiment is classed as cell-based. The following applies: agonist buffer giving pH 5.5, HEK293-EcR cells induced with 5 μM PonA, Fluo-4, FLIPR, n=5. The method, then: as §1, §2, §3

T1 sequence (Q8NER1 whole entry): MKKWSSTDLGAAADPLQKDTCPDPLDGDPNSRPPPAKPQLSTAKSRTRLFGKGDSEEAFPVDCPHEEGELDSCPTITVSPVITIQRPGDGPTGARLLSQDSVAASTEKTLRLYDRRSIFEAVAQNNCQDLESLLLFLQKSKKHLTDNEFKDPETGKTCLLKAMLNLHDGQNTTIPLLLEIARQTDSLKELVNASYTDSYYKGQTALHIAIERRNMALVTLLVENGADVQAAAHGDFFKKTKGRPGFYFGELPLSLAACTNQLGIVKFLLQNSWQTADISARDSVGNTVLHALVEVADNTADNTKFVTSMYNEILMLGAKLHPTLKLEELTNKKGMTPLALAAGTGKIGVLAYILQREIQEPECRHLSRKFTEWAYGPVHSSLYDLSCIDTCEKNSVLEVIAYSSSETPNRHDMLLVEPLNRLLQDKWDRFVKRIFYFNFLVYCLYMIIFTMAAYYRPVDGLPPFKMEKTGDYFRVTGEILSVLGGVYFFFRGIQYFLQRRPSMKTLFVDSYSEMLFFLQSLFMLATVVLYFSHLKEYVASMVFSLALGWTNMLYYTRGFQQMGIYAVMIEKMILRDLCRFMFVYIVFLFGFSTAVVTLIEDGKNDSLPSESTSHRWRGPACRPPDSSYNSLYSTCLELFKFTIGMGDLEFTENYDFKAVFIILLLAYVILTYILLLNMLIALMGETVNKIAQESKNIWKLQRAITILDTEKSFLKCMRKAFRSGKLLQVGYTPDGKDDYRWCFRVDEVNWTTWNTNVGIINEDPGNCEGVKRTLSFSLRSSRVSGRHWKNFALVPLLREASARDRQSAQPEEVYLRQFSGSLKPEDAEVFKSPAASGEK

In the case of `O=C(NCCc1ccccc1)N1CCN(c2ncccc2C(F)(F)F)CC1` [Compound A19], the IC50 was 382 ± 64.2 nM at human VR1 [1] and 808 ± 254 nM at human VR1 [2].
